{"source": "patent US20020137929A1", "about": "“1 - (3-heterocyclylphenyl) isothiourea, -isourea, -guanidine and -amidine herbicidal agents” (Intellectual Property Department, BASF Aktiengesellschaft, priority 1998, published 2002)", "key": {"ZEAMX (Corn, Field)": {"test_system": "ZEAMX (Corn, Field)", "experiment": "Postemergence herbicidal evaluation", "format": "in vivo, Zea mays", "details": "postemergence", "summary_of_the_method": "(§1)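 Compound is applied as a foliar spray to seedlings about two weeks old, formulated in equal parts acetone and water with 0.5% TWEEN 20 and delivered at 40 psi to give about 0.0156–0.500 kg per hectare. Injury is rated visually 0–9 after four to five weeks.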"}, "[1]": {"test_system": "CHEAL (Lambsquarters, Common)", "experiment": "Postemergence herbicidal evaluation", "format": "in vivo, Chenopodium album", "details": "postemergence", "summary_of_the_method": "as §1"}, "AMBEL (Ragweed, Common)": {"test_system": "AMBEL (Ragweed, Common)", "experiment": "Preemergence herbicidal evaluation", "format": "in vivo, Ambrosia artemisifolia", "details": "rated 4-5 weeks after treatment", "summary_of_the_method": "(§2)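 Visual 0-9 rating vs control (stand, vigor, malformation, size, chlorosis, overall appearance), scored 4-5 wk after spraying. Seeded soil cups were treated preemergence with compound in aqueous acetone, ~0.0156-0.500 kg/ha equivalent.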"}, "[2]": {"test_system": "SAGPY (Arrowhead (Pygmaea))", "experiment": "Postemergence weed control under flooded paddy conditions", "format": "in vivo, Sagittaria pygmaea", "details": "postemergence weeds, 3-4 weeks after treatment", "summary_of_the_method": "(§3)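 Herbicidal effect is judged by eye on a 0–9 scale versus control, 3–4 weeks after dosing. Dosing is into flood water kept 1.5–3 cm over the soil, at about 0.0313–0.500 kg/ha in aqueous/acetone 50/50 v/v, on 3–5 cm weeds and 1.5–2.5-leaf rice seedlings.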"}, "SETVI (Foxtail, Green)": {"test_system": "SETVI (Foxtail, Green)", "experiment": "Preemergence herbicidal evaluation", "format": "in vivo, Setaria viridis", "details": "rated 4-5 weeks after treatment", "summary_of_the_method": "as §2"}, "ORYSAT (Rice, Tebonnet) [3]": {"test_system": "ORYSAT (Rice, Tebonnet)", "experiment": "Preemergence herbicidal evaluation", "format": "in vivo, Oryza sativa, (L.) Tebonnet", "details": "rated 4-5 weeks after treatment", "summary_of_the_method": "as §2"}, "ORYSAT (Rice, Tebonnet) [4]": {"test_system": "ORYSAT (Rice, Tebonnet)", "experiment": "Postemergence herbicidal evaluation", "format": "in vivo, Oryza sativa, (L.) Tebonnet", "details": "postemergence", "summary_of_the_method": "as §1"}, "CYPSE (Flatsedge) [5]": {"test_system": "CYPSE (Flatsedge)", "experiment": "Preemergence weed control under flooded paddy conditions", "format": "in vivo, Cyperus serotinus", "details": "rated 3-4 weeks after treatment", "summary_of_the_method": "(§4)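 Seeds or propagules sown in silt loam kept flooded 1.5-3 cm; compounds in 50/50 acetone/water pipetted into flood water at about 0.0313 to 0.500 kg/ha. Greenhouse; visual 0-9 rating versus untreated control 3-4 weeks after treatment.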"}, "CYPIR (Rice Flatsedge)": {"test_system": "CYPIR (Rice Flatsedge)", "experiment": "Postemergence weed control under flooded paddy conditions", "format": "in vivo, Cyperus iria", "details": "postemergence weeds, 3-4 weeks after treatment", "summary_of_the_method": "as §3"}, "GALAP (Galium)": {"test_system": "GALAP (Galium)", "experiment": "Postemergence herbicidal evaluation", "format": "in vivo, Galium aparine", "details": "postemergence", "summary_of_the_method": "as §1"}, "CASOB (Sicklepod)": {"test_system": "CASOB (Sicklepod)", "experiment": "Postemergence herbicidal evaluation", "format": "in vivo, Cassia obtusifolia", "details": "postemergence", "summary_of_the_method": "as §1"}, "CYPSE (Flatsedge) [6]": {"test_system": "CYPSE (Flatsedge)", "experiment": "Postemergence weed control under flooded paddy conditions", "format": "in vivo, Cyperus serotinus", "details": "postemergence weeds, 3-4 weeks after treatment", "summary_of_the_method": "as §3"}, "MOOVA (Monochoria)": {"test_system": "MOOVA (Monochoria)", "experiment": "Preemergence weed control under flooded paddy conditions", "format": "in vivo, Monochoria vaginalis", "details": "rated 3-4 weeks after treatment", "summary_of_the_method": "as §4"}}, "data": [{"molecule": "CN1C(=O)C(F)SC1=Nc1cc(N2C(=O)C3=C(CCCC3)C2=O)c(F)cc1Cl", "note": "(stereo not drawn) [Compound 5, N-{4-chloro-2-fluoro-5-[(5-fluoro-3-methyl-4-oxo-2-thiazolidinylidene)amino]phenyl}-1-cyclohexene-1,2-dicarboximide]", "values": [{"measurement": "ZEAMX herbicidal rating", "setting": "ZEAMX (Corn, Field); rate 0.0157 kg/ha", "result": 3.5}, {"measurement": "ZEAMX herbicidal rating", "setting": "ZEAMX (Corn, Field); rate 0.0313 kg/ha", "result": 3.5}, {"measurement": "ZEAMX herbicidal rating", "setting": "ZEAMX (Corn, Field); rate 0.0625 kg/ha", "result": 4.0}, {"measurement": "ZEAMX herbicidal rating", "setting": "ZEAMX (Corn, Field); rate 0.1250 kg/ha", "result": 3.5}, {"measurement": "ZEAMX herbicidal rating", "setting": "ZEAMX (Corn, Field); rate 0.2500 kg/ha", "result": 4.0}, {"measurement": "ZEAMX herbicidal rating", "setting": "ZEAMX (Corn, Field); rate 0.5000 kg/ha", "result": 3.5}, {"measurement": "CHEAL herbicidal rating", "setting": "[1]; rate 0.0157 kg/ha", "result": 2.0}, {"measurement": "CHEAL herbicidal rating", "setting": "[1]; rate 0.0313 kg/ha", "result": 2.0}, {"measurement": "CHEAL herbicidal rating", "setting": "[1]; rate 0.0625 kg/ha", "result": 6.0}, {"measurement": "CHEAL herbicidal rating", "setting": "[1]; rate 0.1250 kg/ha", "result": 9.0}, {"measurement": "CHEAL herbicidal rating", "setting": "[1]; rate 0.2500 kg/ha", "result": 8.0}, {"measurement": "CHEAL herbicidal rating", "setting": "[1]; rate 0.5000 kg/ha", "result": 9.0}, {"measurement": "AMBEL preemergence herbicidal rating", "setting": "AMBEL (Ragweed, Common); rate 0.0625 kg/ha", "result": 0.0}, {"measurement": "AMBEL preemergence herbicidal rating", "setting": "AMBEL (Ragweed, Common); rate 0.1250 kg/ha", "result": 0.0}, {"measurement": "AMBEL preemergence herbicidal rating", "setting": "AMBEL (Ragweed, Common); rate 0.2500 kg/ha", "result": 0.0}, {"measurement": "AMBEL preemergence herbicidal rating", "setting": "AMBEL (Ragweed, Common); rate 0.5000 kg/ha", "result": 0.0}, {"measurement": "Herbicidal rating SAGPY", "setting": "[2]; rate 0.1250 kg/ha", "result": 0.0}, {"measurement": "Herbicidal rating SAGPY", "setting": "[2]; rate 0.2500 kg/ha", "result": 0.0}, {"measurement": "Herbicidal rating SAGPY", "setting": "[2]; rate 0.5000 kg/ha", "result": 0.0}, {"measurement": "SETVI preemergence herbicidal rating", "setting": "SETVI (Foxtail, Green); rate 0.0625 kg/ha", "result": 0.0}, {"measurement": "SETVI preemergence herbicidal rating", "setting": "SETVI (Foxtail, Green); rate 0.1250 kg/ha", "result": 2.0}, {"measurement": "SETVI preemergence herbicidal rating", "setting": "SETVI (Foxtail, Green); rate 0.2500 kg/ha", "result": 6.0}, {"measurement": "SETVI preemergence herbicidal rating", "setting": "SETVI (Foxtail, Green); rate 0.5000 kg/ha", "result": 9.0}, {"measurement": "ORYSAT preemergence herbicidal rating", "setting": "ORYSAT (Rice, Tebonnet) [3]; rate 0.0625 kg/ha", "result": 0.0}, {"measurement": "ORYSAT preemergence herbicidal rating", "setting": "ORYSAT (Rice, Tebonnet) [3]; rate 0.1250 kg/ha", "result": 0.0}, {"measurement": "ORYSAT preemergence herbicidal rating", "setting": "ORYSAT (Rice, Tebonnet) [3]; rate 0.2500 kg/ha", "result": 2.0}, {"measurement": "ORYSAT preemergence herbicidal rating", "setting": "ORYSAT (Rice, Tebonnet) [3]; rate 0.5000 kg/ha", "result": 2.0}, {"measurement": "ORYSAT herbicidal rating", "setting": "ORYSAT (Rice, Tebonnet) [4]; rate 0.0157 kg/ha", "result": 1.5}, {"measurement": "ORYSAT herbicidal rating", "setting": "ORYSAT (Rice, Tebonnet) [4]; rate 0.0313 kg/ha", "result": 1.5}, {"measurement": "ORYSAT herbicidal rating", "setting": "ORYSAT (Rice, Tebonnet) [4]; rate 0.0625 kg/ha", "result": 2.5}, {"measurement": "ORYSAT herbicidal rating", "setting": "ORYSAT (Rice, Tebonnet) [4]; rate 0.1250 kg/ha", "result": 2.5}, {"measurement": "ORYSAT herbicidal rating", "setting": "ORYSAT (Rice, Tebonnet) [4]; rate 0.2500 kg/ha", "result": 2.5}, {"measurement": "ORYSAT herbicidal rating", "setting": "ORYSAT (Rice, Tebonnet) [4]; rate 0.5000 kg/ha", "result": 2.5}, {"measurement": "Herbicidal rating CYPSE", "setting": "CYPSE (Flatsedge) [5]; 0.1250 kg/ha", "result": 0.0}, {"measurement": "Herbicidal rating CYPSE", "setting": "CYPSE (Flatsedge) [5]; 0.2500 kg/ha", "result": 0.0}, {"measurement": "Herbicidal rating CYPSE", "setting": "CYPSE (Flatsedge) [5]; 0.5000 kg/ha", "result": 1.0}, {"measurement": "Herbicidal rating CYPIR", "setting": "CYPIR (Rice Flatsedge); rate 0.1250 kg/ha", "result": 0.0}, {"measurement": "Herbicidal rating CYPIR", "setting": "CYPIR (Rice Flatsedge); rate 0.2500 kg/ha", "result": 0.0}, {"measurement": "Herbicidal rating CYPIR", "setting": "CYPIR (Rice Flatsedge); rate 0.5000 kg/ha", "result": 0.0}, {"measurement": "GALAP herbicidal rating", "setting": "GALAP (Galium); rate 0.0157 kg/ha", "result": 0.0}, {"measurement": "GALAP herbicidal rating", "setting": "GALAP (Galium); rate 0.0313 kg/ha", "result": 2.0}, {"measurement": "GALAP herbicidal rating", "setting": "GALAP (Galium); rate 0.0625 kg/ha", "result": 8.0}, {"measurement": "GALAP herbicidal rating", "setting": "GALAP (Galium); rate 0.1250 kg/ha", "result": 9.0}, {"measurement": "GALAP herbicidal rating", "setting": "GALAP (Galium); rate 0.2500 kg/ha", "result": 9.0}, {"measurement": "GALAP herbicidal rating", "setting": "GALAP (Galium); rate 0.5000 kg/ha", "result": 9.0}, {"measurement": "CASOB herbicidal rating", "setting": "CASOB (Sicklepod); rate 0.0157 kg/ha", "result": 0.0}, {"measurement": "CASOB herbicidal rating", "setting": "CASOB (Sicklepod); rate 0.0313 kg/ha", "result": 0.0}, {"measurement": "CASOB herbicidal rating", "setting": "CASOB (Sicklepod); rate 0.0625 kg/ha", "result": 0.0}, {"measurement": "CASOB herbicidal rating", "setting": "CASOB (Sicklepod); rate 0.1250 kg/ha", "result": 0.0}, {"measurement": "CASOB herbicidal rating", "setting": "CASOB (Sicklepod); rate 0.2500 kg/ha", "result": 0.0}, {"measurement": "CASOB herbicidal rating", "setting": "CASOB (Sicklepod); rate 0.5000 kg/ha", "result": 9.0}, {"measurement": "Herbicidal rating CYPSE", "setting": "CYPSE (Flatsedge) [6]; rate 0.1250 kg/ha", "result": 0.0}, {"measurement": "Herbicidal rating CYPSE", "setting": "CYPSE (Flatsedge) [6]; rate 0.2500 kg/ha", "result": 0.0}, {"measurement": "Herbicidal rating CYPSE", "setting": "CYPSE (Flatsedge) [6]; rate 0.5000 kg/ha", "result": 0.5}, {"measurement": "Herbicidal rating MOOVA", "setting": "MOOVA (Monochoria); 0.1250 kg/ha", "result": 2.0}, {"measurement": "Herbicidal rating MOOVA", "setting": "MOOVA (Monochoria); 0.2500 kg/ha", "result": 4.0}, {"measurement": "Herbicidal rating MOOVA", "setting": "MOOVA (Monochoria); 0.5000 kg/ha", "result": 8.0}]}]}
